Results reported in patent publication US8303960B2, “Radiolabeled affibody molecules” (The United States of America, as represented by the …, priority 2007, dated 2012).
Values joined by “and” are separate entries in the source; they are usually repeats but may differ in a detail not shown here. Identical values can stand only once.

What was measured:
Type in all cases: in vivo, mice
HER2 [1] = test: Ex-vivo western blot of tumor tissue lysates after 17-DMAG treatment; conditions: for HER2 western blot signal, fraction of control lane (in parentheses): lane (3) relative to lane (1); for HER2 western blot, mean intensity of the signal: after 17-DMAG
Experimental: (§1) Mice bearing BT-474 or MCF7/clone18 subcutaneous tumors are treated with two doses (30-50 mg/kg, 12 or 24 h apart) of 17-DMAG. Animals (n=4-6) are scanned before, 36 h, and 84 h after the treatment. Immediately after the last scan, the animals are euthanized, and the tumors are frozen for further analysis. HER2 expression in the tumors is then measured ex-vivo by western blot (Table 2) and ELISA (Table 3).

HER2 [2] = test: Ex-vivo ELISA of tumor tissue lysates after 17-DMAG treatment
Experimental: as §1

HER2 [3] = test: PET imaging of ^18F-ZHER2-affibody tumor uptake before and after 17-DMAG; conditions: 84 h post-treatment; BT-474 and MCF7/clone 18 tumors
Experimental: as §1, with “3). In animals treated with 17-DMAG, the accumulation of radioactivity estimated by PET imaging decreases 50-70% at 84 h post-treatment (FIGS. 11 and 12). This change is confirmed by the biodistribution studies, see, e.g., FIG. 13.” for “3).”

For `CO[C@H]1/C=C\C=C(/C)C(=O)NC2=CC(=O)C(NCCN(C)C)=C(C[C@@H](C)C[C@H](OC)[C@H](O)[C@@H](C)/C=C(\C)[C@@H]1OC(N)=O)C2=O` [17-DMAG, 17-dimethylaminoethylamino-17-demethoxygeldanamycin], the “HER2 western blot signal, fraction of control lane (in parentheses)” value (HER2 [1]; dry transfer) was “(0.36)”, the “HER2 western blot, mean intensity of the signal” value (HER2 [1]; dry transfer, lane (3)) was 43.24 DU and the “HER2 western blot, mean intensity of the signal” value (HER2 [1]; dry transfer, lanes (5) and (6)) was 99.85 DU and 88.68 DU. The “decrease of HER2 expression” value (HER2 [1]; ex vivo analysis of tumor samples by western blots and ELISA) was 50-70%, the “HER2 western blot signal, fraction of control lane (in parentheses)” value (HER2 [1]; wet transfer) was “(0.34)” and the “HER2 western blot, mean intensity of the signal” value (HER2 [1]; wet transfer, lane (3)) was 83.08 DU. The “HER2 western blot, mean intensity of the signal” value (HER2 [1]; wet transfer, lanes (5) and (6)) was 187.69 DU and 156.39 DU, the “HER2 in tissue lysate (ELISA)” value (HER2 [2]; BT-474 tumor after 17-DMAG, Trial 1) was 541.41 fmol/mg protein and the “HER2 in tissue lysate (ELISA)” value (HER2 [2]; BT-474 tumor after 17-DMAG, Trial 2) was 504.86 fmol/mg protein. For the same compound, the “HER2 (ELISA), fraction of untreated control (in parentheses)” value (“HER2 (ELISA), fraction” below) (HER2 [2]; BT-474 tumor, Trial 1) was “(0.35)”, the “HER2 (ELISA), fraction” value (HER2 [2]; BT-474 tumor, Trial 2) was “(0.30)” and the “HER2 in tissue lysate (ELISA)” value (HER2 [2]; MCF7/clone 18 tumor after 17-DMAG, Trial 1) was 602.19 fmol/mg protein. For the same compound, the “HER2 in tissue lysate (ELISA)” value (HER2 [2]; MCF7/clone 18 tumor after 17-DMAG, Trial 2) was 516.77 fmol/mg protein, the “HER2 (ELISA), fraction” value (HER2 [2]; MCF7/clone 18 tumor, Trial 1) was “(0.43)” and the “HER2 (ELISA), fraction” value (HER2 [2]; MCF7/clone 18 tumor, Trial 2) was “(0.36)”. The “decrease of accumulation of radioactivity estimated by PET imaging” value (HER2 [3]) was 50-70%.
